Usually IC50 stands for the concentration that gives 50% inhibition. A low value points to higher potency.

Active and inactive are the calls of the source. The calls are words filed in the database; no cut-off is given here.

Test [1] deals with T1, Guanine nucleotide-binding protein G(I)/G(S)/G(T) subunit beta-1/gamma-2 (Homo sapiens, UniProt P62873+P59768). Kind of test: Inhibition of biotinylated Gbeta1gamma2 (unknown origin) binding to PLCbeta2 at 1 uM incubated for 16 hrs. The format is protein-complex assay.
Target sequence in this assay (P59768 2-71 partner limits assumed): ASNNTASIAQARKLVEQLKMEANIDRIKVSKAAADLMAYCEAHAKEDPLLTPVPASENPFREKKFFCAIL
Target sequence in this assay (P62873 2-340 limits assumed): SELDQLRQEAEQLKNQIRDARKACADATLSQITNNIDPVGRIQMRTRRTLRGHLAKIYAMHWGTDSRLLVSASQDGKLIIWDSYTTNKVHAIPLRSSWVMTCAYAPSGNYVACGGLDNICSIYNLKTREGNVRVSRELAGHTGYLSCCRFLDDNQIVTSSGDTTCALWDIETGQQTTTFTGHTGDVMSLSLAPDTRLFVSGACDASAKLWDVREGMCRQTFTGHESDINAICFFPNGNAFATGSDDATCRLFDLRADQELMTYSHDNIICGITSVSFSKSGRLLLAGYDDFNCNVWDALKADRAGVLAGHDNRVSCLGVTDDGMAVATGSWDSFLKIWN
Test [2] concerns the target T1, Guanine nucleotide-binding protein G(I)/G(S)/G(T) subunit beta-1/gamma-2. As to the kind of experiment: Inhibition of biotinylated Gbeta1gamma2 (unknown origin) binding to PLCbeta3 at 1 uM incubated for 16 hrs. The format is protein-complex assay.
Target sequence in this assay (P59768 2-71 partner limits assumed): as the sequence (P59768 2-71 partner limits assumed) above
Target sequence in this assay (P62873 2-340 limits assumed): as the sequence (P62873 2-340 limits assumed) above
The subject of test [3] is HL-60. Kind of test: Binding affinity to Gbetagamma in human HL60 cells assessed as inhibition of fMLP-stimulated GRK2 translocation at 10 uM incubated for 5 mins prior to fMLP stimulation by Western blot analysis. The class given is cell-based.
In test [4] the test system is HL-60. As to the kind of experiment: Effect on fMLP-stimulated ERK1/2 phosphorylation in human HL60 cells at 10 uM incubated for 5 mins prior to fMLP stimulation by Western blot analysis. The class given is functional, cell-based. (In general: In western blotting, separated proteins are transferred to a membrane and probed.)
For test [5], the target named is T1, Guanine nucleotide-binding protein G(I)/G(S)/G(T) subunit beta-1/gamma-2. As to the kind of experiment: Inhibition of biotinylated Gbeta1gamma2 (unknown origin)-mediated PLCbeta3 activation incubated for 16 hrs. The format is protein-complex assay.
Target sequence in this assay (P59768 2-71 limits assumed): as the sequence (P59768 2-71 partner limits assumed) above
Target sequence in this assay (P62873 2-340 limits assumed): as the sequence (P62873 2-340 limits assumed) above
Test [6] shares this target. As to the kind of experiment: Inhibition of biotinylated Gbeta1gamma2 (unknown origin)-mediated PLCbeta2 activation incubated for 16 hrs. The format is protein-complex assay.
Target sequence in this assay (P59768 2-71 limits assumed): as the sequence (P59768 2-71 partner limits assumed) above
Target sequence in this assay (P62873 2-340 limits assumed): as the sequence (P62873 2-340 limits assumed) above
Test [7] relates to HL-60. As to the kind of experiment: Binding affinity to Gbetagamma in differentiated human HL60 cells assessed as inhibition of fMLP-stimulated Rac1 activation at 10 uM preincubated for 10 mins followed by fMLP challenge for 90 secs by Western blot analysis. The class given is cell-based.
Test [8] relates to HL-60. Kind of test: Antiinflammatory activity in differentiated human HL60 cells assessed as inhibition of fMLP-stimulated cell migration at 10 uM after 1 hr by Boyden chamber method. The class given is functional, cell-based.
For test [9], the species on record is Mus musculus. Kind of test: Inhibition of Gbetagamma-GRK2 interaction in mouse cardiomyocytes assessed as increase in contractility. The format is cell-based.
Test [10] is filed under the species Mus musculus. As to the kind of experiment: Inhibition of Gbetagamma-GRK2 interaction in mouse cardiomyocytes assessed as increase in isoproterenol-induced contractility. The format is cell-based.
Test [11] addresses Mu-type opioid receptor (Homo sapiens) (UniProt P35372). As to the kind of experiment: Inhibition of human Gbetagamma-dependent mu opioid receptor-mediated PLC activation expressed in CHO cells assessed as reduction of DAMGO-mediated total inositol phosphate production at 10 uM after 30 mins by scintillation counting analysis in presence of [3H]inositol. The class given is functional, cell-based.

Test [12] has the same target. Kind of test: Inhibition of human Gbetagamma-dependent mu opioid receptor-mediated PLC activation expressed in CHO cells assessed as reduction of morphine-mediated total inositol phosphate production at 10 uM after 30 mins by scintillation counting analysis in presence of [3H]inositol. The format is functional, cell-based.
Test [13] deals with HL-60. Kind of test: Binding affinity to Gbetagamma in human HL60 cells assessed as inhibition of fMLP-stimulated Ca2+ release at 10 uM incubated for 5 mins prior to fMLP stimulation by Fura2-AM dye-based assay. The format is cell-based.
For test [14], the system named is HL-60. Kind of test: Binding affinity to Gbetagamma in human HL60 cells assessed as inhibition of fMLP-stimulated GFP-PHAkt translocation to plasma membrane at 10 uM incubated for 5 mins prior to fMLP stimulation by Western blot analysis. The class given is cell-based.
Test [15] deals with Guanine nucleotide-binding protein G(I)/G(S)/G(T) subunit beta-1/gamma-2 (Homo sapiens, UniProt P59768+P62873). Kind of test: (§1) Inhibition of SIGKAFKILGYPDYD binding to biotinylated Gbeta1gamma2 (unknown origin) incubated for 1 hr by phage ELISA. The class given is protein-complex assay.
Test [16] deals with T1, Guanine nucleotide-binding protein G(I)/G(S)/G(T) subunit beta-1/gamma-2. Described as §1. The format is protein-complex assay.
Target sequence in this assay (P59768 2-71 partner limits assumed): as the sequence (P59768 2-71 partner limits assumed) above
Target sequence in this assay (P62873 2-340 limits assumed): as the sequence (P62873 2-340 limits assumed) above
Test [17] shares this target. As to the kind of experiment: Inhibition of SIGKAFKILGYPDYD binding to biotinylated Gbeta1gamma2 (unknown origin) at 300 uM incubated for 1 hr by phage ELISA. The format is protein-complex assay. A general note: In an ELISA, binding on a coated surface is turned into a signal by an enzyme label.
Target sequence in this assay (P59768 2-71 partner limits assumed): as the sequence (P59768 2-71 partner limits assumed) above
Target sequence in this assay (P62873 2-340 limits assumed): as the sequence (P62873 2-340 limits assumed) above
Test [18] addresses Delta-type opioid receptor (Homo sapiens) (UniProt P41143). The conditions noted are these: CHO, 100 uM.
Description: Inhibition of human Gbetagamma-dependent delta opioid receptor-mediated PLC activation expressed in CHO cells assessed as reduction of DPDPE-mediated total inositol phosphate production at 100 uM after 30 mins by scintillation counting analysis in presence of [3H]inositol
Test [19] has the same target. The settings on record: CHO, 100 uM. This is another data set of the same source.
Description: Inhibition of human Gbetagamma-dependent delta opioid receptor-mediated PLC activation expressed in CHO cells assessed as reduction of Deltorphin 2-mediated total inositol phosphate production at 100 uM after 30 mins by scintillation counting analysis in presence of [3H]inositol
A further test relates to CHO. As to the kind of experiment: Inhibition of human Gbetagamma-dependent kappa opioid receptor-mediated PLC activation expressed in CHO cells assessed as reduction of U50,488-mediated total inositol phosphate production at 10 uM after 30 mins by scintillation counting analysis in presence of [3H]inositol. The class given is cell-based.
Test [20] concerns Mus musculus. Kind of test: Antiinflammatory activity in Swiss-Webster mouse assessed as inhibition of carrageenan-induced paw edema at 2.5 mg/kg, ip administered 1 hr followed by carrageenan challenge measured 3 times every 2 hrs. The class given is functional, organism-based.
Test [21] has as its system Mus musculus. Kind of test: Antiinflammatory activity in Swiss-Webster mouse carrageenan-induced paw edema model assessed as inhibition of neutrophils recruitment in edematous fluid at 2.5 mg/kg, ip administered 1 hr followed by carrageenan challenge. The class given is functional, organism-based. For orientation: In the carrageenan paw model, swelling and tenderness develop within hours.

Test [22] relates to Mus musculus. Kind of test: Antiinflammatory activity in Swiss-Webster mouse carrageenan-induced paw edema model assessed as reduction of paw exudate volume at 2.5 mg/kg, ip administered 1 hr followed by carrageenan challenge. The class given is functional, organism-based.

Delta-type opioid receptor (Homo sapiens), sequence (P41143 whole entry): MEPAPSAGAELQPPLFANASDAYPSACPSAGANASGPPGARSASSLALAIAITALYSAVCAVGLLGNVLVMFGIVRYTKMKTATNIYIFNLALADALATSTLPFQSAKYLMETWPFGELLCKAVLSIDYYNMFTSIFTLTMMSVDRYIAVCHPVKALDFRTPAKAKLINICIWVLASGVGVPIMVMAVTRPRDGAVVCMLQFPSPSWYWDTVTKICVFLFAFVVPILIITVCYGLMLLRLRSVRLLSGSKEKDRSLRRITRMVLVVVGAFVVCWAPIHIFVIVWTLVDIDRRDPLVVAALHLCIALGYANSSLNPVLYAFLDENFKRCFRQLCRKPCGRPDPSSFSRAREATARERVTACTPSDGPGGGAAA
Mu-type opioid receptor (Homo sapiens), sequence (P35372 whole entry): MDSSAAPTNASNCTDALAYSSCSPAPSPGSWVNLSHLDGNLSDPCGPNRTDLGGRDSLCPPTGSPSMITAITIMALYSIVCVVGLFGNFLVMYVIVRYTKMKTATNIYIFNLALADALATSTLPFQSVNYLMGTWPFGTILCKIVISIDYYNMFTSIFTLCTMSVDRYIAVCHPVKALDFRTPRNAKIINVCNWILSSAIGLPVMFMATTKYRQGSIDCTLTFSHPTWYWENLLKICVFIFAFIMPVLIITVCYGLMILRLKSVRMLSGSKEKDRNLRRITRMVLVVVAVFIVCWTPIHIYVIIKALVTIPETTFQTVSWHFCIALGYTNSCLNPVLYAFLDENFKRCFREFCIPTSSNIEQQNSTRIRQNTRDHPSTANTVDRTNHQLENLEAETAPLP
Guanine nucleotide-binding protein G(I)/G(S)/G(T) subunit beta-1/gamma-2 (Homo sapiens, UniProt P59768+P62873), sequence (P59768 2-71 partner limits assumed): as the sequence (P59768 2-71 partner limits assumed) above
Guanine nucleotide-binding protein G(I)/G(S)/G(T) subunit beta-1/gamma-2 (Homo sapiens, UniProt P59768+P62873), sequence (P62873 2-340 limits assumed): as the sequence (P62873 2-340 limits assumed) above

With `COc1cc2c(c(OC)c1OC)-c1ccc(O)c(=O)cc1C(N)CC2` (configuration not stated), the inhibition entry in test [1] and in test [2] was “inactive” throughout. Also, in the test with HL-60 [3], the inhibition result is “Active”. In addition, the result in the test on HL-60 [4] was inactive.
In the case of `Ic1ccc2c(c1)N(c1ccccc1)c1cc(Nc3ccc4nc5ccc(I)cc5[n+](-c5ccccc5)c4c3)ccc1N2`, the IC50 result in test [5] and in test [6] was “Not Active” in each case.
Regarding `O=C(O)C1CCCCC1c1c2ccc(=O)cc-2oc2cc(O)ccc12` (configuration not stated), the inhibition result in the test on HL-60 [7], in the test with HL-60 [8], in the test filed under Mus musculus [9] and in the test listed under Mus musculus [10] was “inactive” throughout.
`COC(=O)/C=C/C(=O)N[C@@H]1CC[C@@]2(O)[C@H]3Cc4ccc(O)c5c4[C@@]2(CCN3CC2CC2)[C@H]1O5`: the inhibition entry in [11] and in test [12] was “Active” throughout.
In the case of `O=C1c2ccccc2C(=O)c2c(Nc3cc4c5c(ccc6c7ccc8c9c(cc(Nc%10cccc%11c%10C(=O)c%10ccccc%10C%11=O)c(c3c56)c97)-c3ccccc3C8=O)C(=O)c3ccccc3-4)cccc21`, the IC50 result in test [5] was “Not Active”.
On to `O=C(O)C1CC23C(Cl)C(Cl)C(Cl)C(Cl)C2(CC1c1c2ccc(=O)c(O)c-2oc2c(O)c(O)ccc12)C3(Cl)Cl` (configuration not stated), for which the inhibition entry with HL-60 [13] and in the test with HL-60 [14] was “Active” in each case. Also, the result in the test on HL-60 [4] was inactive.
Regarding `CC1C2C=CC1C(c1c3ccc(=O)cc-3oc3cc(O)ccc13)C2C(=O)O` (configuration not stated), the IC50 in [15] worked out at 14 µM.
Turning to `O=c1cc2oc3cc(O)c(O)cc3c(-c3ccccc3O)c-2cc1O`, the inhibition result in test [16] and in [17] was “inactive” throughout.
Regarding `O=C(O)c1ccc(-c2c3ccc(=O)cc-3oc3cc(O)ccc23)cc1`, the inhibition result in [16] and in test [17] was “inactive” throughout.
For the compound `Oc1ccc2c3c1O[C@H]1c4[nH]c5ccccc5c4C[C@@]4(O)[C@@H](C2)N(CC2CC2)CC[C@]314`, the inhibition entry in test [18] and in test [19] was “inactive” in each case.
`Cc1c2ccc(=O)cc-2oc2cc(O)ccc12`: the inhibition entry in test [16] and in test [17] was “inactive” throughout.
With `Oc1ccc2c3c1O[C@H]1c4[nH]c5c(c4C[C@@]4(O)[C@@H](C2)N(CC2CC2)CC[C@]314)C[C@@]1(O)[C@H]2Cc3ccc(O)c4c3[C@@]1(CCN2CC1CC1)[C@H]5O4`, the inhibition result in the test with CHO is “inactive”.
In the case of `COc1ccc2c(c1)c(CC(=O)O)c(C)n2C(=O)c1ccc(Cl)cc1`, the inhibition result in the test on Mus musculus [20] and in the test on Mus musculus [21] was “Active” each time. In addition, the outcome in the test with Mus musculus [22] was Active.
With `Cc1c2cc(O)c(=O)cc-2oc2cc(O)c(O)cc12`, the inhibition entry in [16] and in test [17] was “inactive” in each case.
In [15], `O=C(O)c1cccc2cccc(-c3c4ccc(=O)c(O)c-4oc4c(O)c(O)ccc34)c12` displayed a concentration for half-maximal inhibition (IC50) of 0.13 µM. This counts as sub-micromolar.

These data come from ChEMBL document CHEMBL3727357, “Compositions and methods for inhibiting g protein signaling” (2010).
